The subject of experiment [1] is HT-1080 (fibrosarcoma) cells. The experiment is described as follows: Soft agar assay (anchorage-independent growth), HT-1080. Type of experiment: cell-based, human. The procedure: Soft agar assay and analysis was carried out as previously described. For scratch assay, confluent monolayer of U2OS and HT-1080 cells were subjected to scratch using a sterile pipette tip. Wounded monolayers were washed to remove debris and incubated with SEN461 at different concentrations for 20 hours. After the incubation period, images were taken under an Axiovert 200M (Zeiss) microscope equipped with a CCD camera, and the gap width was measured using MetaMorph 6.3 software (Universal Imaging Corp.) to calculate the area covered by cells (pixels unit). The tube formation assay was performed using growth factor-reduced Matrigel from BD (BD Biosciences; San Jose, CA, USA). Matrigel was thawed overnight at 4°C and was diluted (1∶1) with phenol red-free DMEM without serum. 100 µl of the diluted matrigel was used to coat the wells of a 96 well plate and was allowed to polymerize for 2 hours at 37°C. After equilibrating the gel with the complete growth medium, 15×10^3 cells were seeded in each well and incubated for 20 hours. The tube formation was monitored under a phase contrast microscope (Axiovert 200, Zeiss) and imaged using MetaMorph system (Universal Imaging Corp).

Experiment [2] deals with Axin1/P-β-catenin co-localization in U2OS cells. The experiment is described as follows: Axin1-GFP / P-β-catenin co-localization (confocal) in U2OS. In kind it is cell-based, human. The note with it: Wnt3a-CM, 10 µmol/L overnight.
Protocol: For co-localization experiments, U2OS cells were plated directly on coverslips coated with Fibronectin (Invitrogen). After transfections and incubation treatment of 24 h, cells were washed once with 1X PBS and then fixed with 4% paraformaldehyde for 15 min. After three washes in PBS, cells were permeabilized with 0.1% Triton X-100 for 10 min and washed three times with TBS (Bio-Rad). […] After 24 h, cells were washed three times with TBS and incubated for 1 h with the following secondary antibody Alexa Fluor 546-conjugated goat anti-rabbit IgG (Invitrogen, 1∶1000). Finally, coverslips were mounted onto glass slides using Prolong Gold Antifade reagent with DAPI (Invitrogen). Cells were examined under laser confocal fluorescence microscope with plan-apochromate 40x and 63x/1.4 oil-immersion objective (LSM 510 Meta, Axiovert 200, Zeiss). Co-localization experiments were performed in triplicate, and data/images presented are the average of at least 10 random fields for each independent experiment.
For experiment [3], the system named is Wnt target gene mRNA in U2OS cells. The experiment is described as follows: Quantitative RT-PCR of Wnt target genes in U2OS. In kind it is cell-based, human. How it is done: RNA extraction and quantitative RT-PCR (qPCR) expression analysis was performed as described previously. Gene expression analysis was performed using the human housekeeping gene RPL13A. Primers for the hAXIN2, hCDC25A, hc-MYC, hFZD4, hDVL2, hCSNK1G and hVEGF-A were the following: Fw: 5′-CAAGGGCCAGGTCACCAA-3′ Rv: 5′-CCCCCAACCCATCTTCGT-3′; Fw: 5′-[…]-3′ Rv: 5′-[…]-3′; Fw: 5′-GGCTCCTGGCAAAAGGTCA-3′ Rv: 5′-[…]-3′; Fw: 5′-[…]-3′ Rv: 5′-[…]-3′; Fw: 5′-[…]-3′ Rv: 5′-GTCTCCCCGCTCATTGCTC-3′; Fw: 5′-[…]-3′ Rv: 5′-[…]-3′; Fw: 5′-[…]-3′ Rv: 5′-[…]-3′.

Experiment [4] relates to Axin1, c-Myc, p21 protein in HT-1080 cells. The experiment is described as follows: Western blotting in HT-1080. In kind it is cell-based, human. The note with it: HT-1080, overnight. On the technique in general: Immunoblotting shows a protein as a band on a membrane.
For experiment [5], the system named is Axin1 and β-catenin in G292 osteosarcoma cells. The experiment is described as follows: Western blotting in G292. Type of experiment: cell-based, human.
The test system of experiment [6] is human mRNA in HT-1080 xenograft tumors. In words: Gene expression (qPCR) in HT-1080 xenograft tumors. In kind it is in vivo, female Crl:CD-1 nude mice. How it is done: RNA extraction and quantitative RT-PCR (qPCR) expression analysis was performed as described previously. Gene expression analysis was performed using the human housekeeping gene RPL13A. Primers for the hAXIN2, hCDC25A, hc-MYC, hFZD4, hDVL2, hCSNK1G and hVEGF-A were the following: [NT] Rv: [NT] Rv: [NT] Rv: [NT] Rv: [NT] Rv: [NT] Rv: [NT] Rv: [NT]. Female athymic nude mice (6 weeks old, Crl:CD-1 nude mice) were obtained from Charles River Italia (Calco, Italy). HT-1080 cells (6×10^∧6 cells) were resuspended in 200 μl of PBS 1X and injected subcutaneously in the right flank of the mice. Body weight and tumor measurements (using a digital caliper) were performed twice a week. […] SEN461 was formulated in 0.5% w/v Methocel in MilliQ water and administered PO by oral gavage twice a day at 30 mg/kg for seven consecutive days in a total of 15 animals (n = 5 for each time point). Control animals (n = 5) were administered with the vehicle for the same time period. On treatment day 19, the mice were euthanized under inhalant anesthesia with isoflurane and tumor and blood samples were collected at three different time points (1-4-8 h, n = 5 animals for each time point) after last treatment and subjected to gene expression analysis and compound quantification. All mice were maintained in a conventional-specific-pathogen-free facility according to the NIH guidelines using an approved Animal Care and Use Committee protocol. During all the experimental time period, mice were housed (5 animals/cage) in individually ventilated solid floor plastic cages (Sealsafe Plus GR500, Tecniplast-Gazzada (VA) - Italy) using as bedding the Sawdust SCOBIS UNO by […] (via Galileo […] Milanese, Milano, Italy). Cages were maintained at a temperature of 20-24°C and humidity of 40-70% (Siemens Desigo Apparatus ver. 4.1) with 70 air changes/hour in the cage (10-15 air changes/hour in the room). Animals were subjected to a 12-hour light/12-hour dark cycle and have free access to a standard pelleted commercial laboratory diet (Certified Rodent irradiated 4RF21- Mucedola, Italy) and to municipal tap water, purified by reverse osmosis and autoclaved. The study was conducted in compliance with Decreto Legislativo January 27, 1992, N. 116, Gazzetta Ufficiale N. 40 February 18, 1992, (Directive N. […]) concerning protection of animals used for scientific purposes. The project was authorized by the Italian Institute of Health (48/2009/B). The experimental protocol was […] approved by the Internal Ethical Committee.

[7] abbreviates: 30 mg/kg BID PO 7 days, data not shown.

Each structure is given as a SMILES string.

Usually IC50 stands for the concentration that gives 50% inhibition. A higher IC50 goes with weaker potency in that assay. Consider `COCC(=O)N1CCN(C(=O)C2CCC(Cn3c(=O)c4cc(OC)ccc4n(C)c3=O)CC2)CC1` (stereo not drawn) [SEN461], for which, in experiment [1], half-maximal inhibition (IC50) was put at 780 nM. Besides, the “phosphorylated β-catenin associated with Axin1 (co-localization)” value in experiment [2] is on record as “increase in the amount of phosphorylated β-catenin associated with Axin1”. For the same compound, in experiment [3] (10 µmol/L), the “CSNK1G mRNA” value is recorded as “down-modulation”, the “DVL2 mRNA” value is “down-modulation” and the “FZD4 mRNA” value was “down-modulation”. Moreover, in experiment [3] (10 µmol/L, 2 or 24 h), the “AXIN2 mRNA” value is “comparable down-regulation” and the “CDC25A mRNA” value is given as “comparable down-regulation”. Also, in experiment [3] (Wnt3a CM stimulation), the “AXIN2 mRNA induced by Wnt3a CM” value is recorded as “inhibited”. In experiment [3] (overnight treatment), the “c-MYC mRNA” value is “unaffected”. Also, in experiment [4], the Axin1 protein level entry is “robust concentration dependent stabilization”, the “CDK inhibitor p21 protein level” value was “up-regulation” and the c-Myc protein level entry is “down-modulation of c-Myc”. In experiment [5], the Axin protein level entry was “Axin stabilization” and the β-catenin level entry is reported as “β-catenin down-modulation”. In experiment [6] (setting [7]), the “AXIN2 mRNA in HT-1080 xenograft tumors” value was “without any significant effect” and the “CDC25A mRNA in HT-1080 xenograft tumors” value was “without any significant effect”. Also, the “c-MYC mRNA in HT-1080 xenograft tumors” value in experiment [6] (30 mg/kg BID PO 7 days, 1, 4, 8 h, vs control animals) was “down-modulation of c-MYC”. The “VEGF-A mRNA in HT-1080 xenograft tumors” value in experiment [6] (30 mg/kg BID PO, 1 h, treated versus control) was “did not show any difference”.

Values taken from PMC4026528 (PLoS ONE, 2014).
